The values below come from patent US20240415790A1, “A COMPOSITION FOR USE IN THE TREATMENT OF INTERVERTEBRAL DISC HERNIATION” (STAYBLE THERAPEUTICS AB, priority 2020, published 2024).

One experiment deals with collagen I. The experiment is described as follows: Immunohistochemical analysis of collagen I in porcine IVD. The experiment is classed as in vivo. The note with it: pig, LA 60 mg/mL, treated vs untreated IVDs. Here is the method:
(§1) Since effects of LA on the NP in the subsequent clinical study was planned to be assessed using MRI, the third series focused on the effects of LA (0.2 mL, 60 mg/mL) on sclerotization as measured by T2-weighted MRI. In addition, effects of LA on the expression of collagen I and II were studied by immunohistochemistry (IHC). The macroscopic changes after LA at 60 mg/mL were similar to those described above. The tissue was dehydrated in graded ethanol and embedded in paraffin. Sections were cut on a microtome, dewaxed, and incubated with polyclonal primary antibodies against collagen I (Abcam 34710) or II (Abcam 34712). The antibodies were diluted 250 (collagen I) or 200 (collagen II) times in phosphate-buffered saline containing 1% bovine serum albumin. Incubation was done at room temperature for 60 min. The sections were then incubated for 30 min at room temperature with horseradish peroxidase-conjugated secondary antibodies (Mach 2 Uni HRP, Biocare Medical) and immunoreactivity was visualized using diaminobenzidine (Biocare Medical).

A further experiment concerns collagen II. Description: Immunohistochemical analysis of collagen II in porcine IVD. It counts as in vivo. The note with it: pig, LA 60 mg/mL, treated vs untreated IVDs. As for the experimental part:
as §1

With `CC(O)C(=O)O` (centres unmarked) [LA, lactic acid], the “Collagen I immunoreactivity in the NP” value in the experiment on collagen I was “strongly induced”. The “Collagen II immunoreactivity” value in the experiment on collagen II is listed as “no clear difference”.
